Where two headings read alike, the source gives them in different places.
CC[C@H](C)C(=O)O[C@H]1C[C@@H](C)C=C2C=C[C@H](C)[C@H](CC[C@@H]3C[C@@H](O)CC(=O)O3)[C@H]21 [Drug Alone, lovastatin]
Cumulative Release (%) (0 minutes, 60 mg lovastatin in 900 mL pH6.8 phosphate buffer with 0.1% SDS, 37.5° C., 50 rpm): 0% | Cumulative Release (%) (5 minutes, pH6.8 phosphate buffer with 0.1% SDS, non-sink): 13.52% | Cumulative Release (%) (10 minutes, pH6.8 phosphate buffer with 0.1% SDS, non-sink): 18.29% | Cumulative Release (%) (15 minutes, pH6.8 phosphate buffer with 0.1% SDS, non-sink): 22.81% | Cumulative Release (%) (30 minutes, pH6.8 phosphate buffer with 0.1% SDS, non-sink): 29.77%
